Earlier results, collected in patent US8496914B2, “Antibacterial oral rinse formulation for preventing coronary artery disease” (priority 2005, dated 2013).

Experiments:
[1] = tested on: Staphylococcus aureus, Staphylococcus epidermidis and Propionibacterium acnes; conditions: Raman et al. 1995
[2] = tested on: Staphylococcus aureus; conditions: Williams et al. 1997

Which “inhibition of three bacterial strains” value [1] does the source give for `CC1=CCC2CC1C2(C)C` (stereo not drawn) [alpha-pinene] here?
The value was “inhibit”.

With `CC1=CCC(C(C)(C)O)CC1` (stereo not drawn) [alpha-terpineol] as the compound, how does the “inhibition of three bacterial strains” value [1] read?
The value was “inhibit”.

For `CC1=CCC(O)(C(C)C)CC1` (stereo not shown) [terpinen-4-ol], which “inhibition of three bacterial strains” value [1] is on record?
The value was “inhibit”.

What about the “activity against Staphylococcus aureus” value [2] of the same compound?
The value was “equally effective”.
